Reference: ChEMBL document CHEMBL3232731, “Diterpene glycosides and polyketides from Xylotumulus gibbisporus” (J Nat Prod, 2014)
Values after ≈ are worked out from the molar mass of the structure shown.

How the values were obtained:
[1] = test system: RAW264.7; assay: Cytotoxicity against mouse RAW264.7 cells by Alamar Blue assay; type: cell-based
[2] = test system: RAW264.7; assay: Antiinflammatory activity in mouse RAW264.7 cells assessed as inhibition of LPS-induced nitric oxide production by spectrophotometric analysis; type: functional, cell-based
[3] = test system: Saccharomyces cerevisiae; assay: Antifungal activity against Saccharomyces cerevisiae ATCC 2345 by NCCLS method; type: functional
[4] = test system: Candida albicans; assay: Antifungal activity against Candida albicans ATCC MYA-2876 by NCCLS method; type: functional
[5] = test system: Candida albicans; assay: Antifungal activity against Candida albicans ATCC 18804 by NCCLS method; type: functional

Row | Structure (SMILES) | Activity [1] | IC50 [2] [µM] | MIC [3] [µg/mL] | MIC [4] [µg/mL] | MIC [5] [µg/mL]
1 | CO[C@H]1[C@@H](O)[C@H](O)[C@H](OC[C@@]23C[C@@H]4[C@H](C)CC[C@H]4[C@@]4(C=O)C[C@@H]2C(=O)C(=C(C)C)[C@@]34C(=O)O)O[C@@H]1C | Non-toxic | 327 |  |  | 
2 | N=C(NCCC[C@H](N)C(=O)O)N[N+](=O)[O-] [NITROARGININE] |  | 146 |  |  | 
3 | N=C(N)NN [PIMAGEDINE] |  | 22.3 |  |  | 
4 | CO[C@H]1[C@@H](O)[C@H](O)[C@H](OC[C@@]23C[C@@H]4[C@H](C)CC[C@H]4[C@@]4(C=O)CC2C=C(C(C)C)[C@@]34C(=O)O)O[C@@H]1C [SORDARIN] | Non-toxic | 157 | 32 (≈ 65 µM) | 32 (≈ 65 µM) | 64 (≈ 130 µM)
